Laboratory results as given in US20100120799A1, “PURINE DERIVATIVES AS IMMUNOMODULATORS” (SMITHKLINE BEECHAM CORPORATION, priority 2007, published 2010).
Several values for one entry are separate records, joined by “and”; a condition that tells them apart may be missing. Equal values may be shown once.

Assays:
[1] = system: HCV ET replicon cells (Huh-7, HCV Con1-ET construct); experiment: Replicon assay: inhibition of Hepatitis C virus replication by supernatants from compound-stimulated human PBMC; assay type: cell-based; settings: Huh-7 HCV ET replicon, luciferase, 48 h incubation, read-out: mean EC50 (compound concentration giving a PBMC supernatant inhibiting HCV replication by 50%)
Method: Inhibition of Hepatitis C virus Replication by Supernatants from Compound-Stimulated Human Peripheral Blood Mononuclear Cells (PBMC).
An assay was established to measure the antiviral activity in supernatants from human PBMC which had been previously stimulated with compounds.
Activity assays were conducted using an Huh-7 cell line stably-transfected with a dicistronic replicon, comprising the HCV Con1-ET construct (Pietschmann et al., 2002 J. Virol. 2002 76(8):4008-21) and the firefly (Photinus pyralis) luciferase gene, obtained from ReBLikon GmbH, Germany.
1.5×10^4 HCV ET replicon cells per well were grown in 96-well plates overnight in 90 microlitres of cell culture medium. Ten microlitres of three-fold dilutions of PBMC supernatants generated above (stimulation of human donor blood-derived peripheral blood mononuclear cells (PBMC) with test compounds) were added to the ET cells. Following a 48-hour incubation, assay medium was removed and luciferase activity measured in the cell monolayers using the Steadylite assay system (Perkin Elmer). EC50 values were calculated as the compound concentration giving a PBMC supernatant which was able to inhibit HCV replication by 50% compared with a supernatant from unstimulated PBMC cultures.

[2] = system: Ovalbumin (OVA)-induced acute pulmonary inflammation; experiment: Ovalbumin-induced acute pulmonary inflammation model; assay type: in vivo, BALB/c mice; settings: BAL on day 28
Method: Inhibition of Ovalbumin (OVA)—Induced Acute Pulmonary Inflammation. Female BALB/c mice (18-20 g) were inoculated on days 0 and 14, with 10 μg OVA adsorbed to 2 mg aluminium hydroxide in a volume of 0.2 ml phosphate buffered saline (PBS) via the intra-peritoneal route. On days 24-26, mice were intra-nasally challenged with 50 μl of either saline or OVA (formulated as above) under general anaesthesia. […] Doses were given once daily on days 23 to 27 with the initial dose 24 h prior to the first challenge. On the days of challenge, animals were dosed with compound or vehicle one hour after challenge. Animals therefore received a total of 5 doses. Dexamethasone was used as a positive control dosed at 10 mg/kg orally in the same vehicle once daily on days 24 to 27 with the initial dose 1 h prior to the first challenge. Animals therefore received a total of 4 doses. Animals were killed on day 28 (48 hours post last saline or OVA challenge) and bronchoalveolar lavage (BAL) was performed with 5×1 ml (0.1% bovine serum albumin, 10 mM EDTA in PBS) and pooled. Numbers of lymphocytes, macrophages, eosinophils and neutrophils in BAL were identified by light scatter flow cytometry and quantified.

[3] = 5 mg/kg orally once daily days 23 to 27, compared with saline treated controls
[4] = positive control, 10 mg/kg orally once daily days 24 to 27, 10 mg/kg

Row | SMILES | EC50 [1] | reduction of eosinophil counts in BAL [2, 3] | reduction of lymphocyte counts in BAL [2, 3] | reduction of neutrophil counts in BAL [2, 3] | reduction of eosinophil counts in BAL [2, 4] | reduction of lymphocyte counts in BAL [2, 4] | reduction of neutrophil counts in BAL [2, 4]
1 | CCCCOc1nc(N)c2[nH]c(=O)n(CC3CCOCC3)c2n1 [Example 1, 6-Amino-2-butoxy-9-(tetrahydro-2H-pyran-4-ylmethyl)-7,9-dihydro-8H-purin-8-one] | 43 nM | – | – | – | – | – | –
2 | CCCCNc1nc(N)c2[nH]c(=O)n(CC3CCOCC3)c2n1 [Example 4, 6-Amino-2-butylamino-9-(tetrahydro-2H-pyran-4-ylmethyl)-7,9-dihydro-8H-purin-8-one] | 1050 nM | 72% | 66% | 50% | – | – | –
3 | CCCCOc1nc(N)c2[nH]c(=O)n(CC3CCCOC3)c2n1 (centres unmarked) [Example 12, 6-Amino-2-butoxy-9-(tetrahydro-2H-pyran-3-ylmethyl)-7,9-dihydro-8H-purin-8-one] | – | 67% | 68% | 58% | – | – | –
4 | C[C@@H]1C[C@H]2[C@@H]3CCC4=CC(=O)C=C[C@]4(C)[C@@]3(F)[C@@H](O)C[C@]2(C)[C@@]1(O)C(=O)CO [dexamethasone, Dexamethasone, reference compound] | – | – | – | – | 92% and 86% | 87% and 86% | 68% and 65%
